Results: ChEMBL document CHEMBL1201862, “PubChem BioAssay data set” (2004)
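Results reflect a 48-hour exposure of cells in 96-well plates to compound at five concentrations. Abbreviation: GI50, concentration required for 50% inhibition of growth.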 Active and inactive are the calls of the source. No stated cut-off is given here; in the data, active = GI50 up to about 1.1 µM and inactive = higher.

Columns and labels:
Test in all cases: NCI-60 cell line screen, 48 h
NCI/ADR-RES = system: NCI/ADR-RES
OVCAR-8 = system: OVCAR-8
UACC-62 = system: UACC-62
NCI-H226 = system: NCI-H226
Hs-578T = system: Hs-578T
MCF7 = system: MCF7
U-251 = system: U-251
ACHN = system: ACHN
M14 = system: M14
RXF 393 = system: RXF 393
LOX IMVI = system: LOX IMVI
COLO 205 = system: COLO 205
SK-OV-3 = system: SK-OV-3
NCI-H522 = system: NCI-H522
SNB-75 = system: SNB-75
SF-268 = system: SF-268
MDA-MB-231 = system: MDA-MB-231
MDA-N = system: MDA-N
HL-60 = system: HL-60
CAKI-1 = system: CAKI-1

Measured: GI50

O=C(O)CC(NC(=O)CP(=O)(O)O)C(=O)O (stereo not given)
inactive: NCI/ADR-RES 1020 µM | OVCAR-8 149 µM | UACC-62 79.6 µM | NCI-H226 2280 µM | Hs-578T 3640 µM | MCF7 381 µM | U-251 71.9 µM | ACHN 711 µM | M14 383 µM | RXF 393 249 µM | LOX IMVI 52.5 µM | COLO 205 558 µM | SK-OV-3 5730 µM | NCI-H522 1650 µM | SNB-75 6080 µM | SF-268 180 µM | MDA-MB-231 1360 µM | MDA-N 221 µM | HL-60 283 µM

Cc1sc(/N=C/c2c[nH]c3ccccc23)c(C#N)c1C
inactive: NCI/ADR-RES 74.6 µM | OVCAR-8 45.5 µM | UACC-62 20.7 µM | NCI-H226 30.5 µM | Hs-578T 58.1 µM | MCF7 27.7 µM | U-251 21.5 µM | ACHN 29.6 µM | M14 22 µM | RXF 393 22.3 µM | LOX IMVI 34.6 µM | COLO 205 > 100 µM | SK-OV-3 88.7 µM | NCI-H522 27.9 µM | SNB-75 37.1 µM | SF-268 85.3 µM | MDA-MB-231 36.4 µM | CAKI-1 56.2 µM | MDA-N 53.7 µM | HL-60 21.2 µM

C=C1CCCCCCCCCCC12SCCC2CCCCSC (stereo not given)
inactive: NCI/ADR-RES 20.8 µM | OVCAR-8 28.8 µM | UACC-62 27.1 µM | NCI-H226 20.4 µM | Hs-578T 39.4 µM | MCF7 21 µM | U-251 17.9 µM | ACHN 20.3 µM | M14 19.9 µM | RXF 393 29.2 µM | LOX IMVI 19.5 µM | COLO 205 19 µM | SK-OV-3 47.3 µM | NCI-H522 17.2 µM | SF-268 28.7 µM | MDA-MB-231 19.9 µM | MDA-N 34.4 µM | HL-60 26.5 µM

O=C(O)c1cncc(C(=O)O)c1
inactive: NCI/ADR-RES > 100 µM | OVCAR-8 > 100 µM | UACC-62 > 100 µM | NCI-H226 > 100 µM | Hs-578T > 100 µM | MCF7 > 100 µM | U-251 > 100 µM | ACHN > 100 µM | M14 > 100 µM | RXF 393 > 100 µM | LOX IMVI > 100 µM | COLO 205 > 100 µM | SK-OV-3 > 100 µM | NCI-H522 > 100 µM | SNB-75 > 100 µM | SF-268 > 100 µM | MDA-MB-231 > 100 µM | CAKI-1 > 100 µM | MDA-N > 100 µM | HL-60 > 100 µM

CN1CCN(c2cc3nc4cc(O)cc(O)c4c(O)c3cc2N)CC1
inactive: NCI/ADR-RES 57.5 µM | OVCAR-8 26.2 µM | UACC-62 1.57 µM | NCI-H226 1.95 µM | Hs-578T 29.7 µM | MCF7 17.7 µM | U-251 17.6 µM | ACHN 27.5 µM | M14 37.1 µM | RXF 393 20.7 µM | LOX IMVI 16.2 µM | COLO 205 14 µM | NCI-H522 19.5 µM | SNB-75 18.2 µM | SF-268 15.9 µM | MDA-MB-231 1.53 µM | CAKI-1 23.3 µM | MDA-N 23.4 µM | HL-60 20.1 µM

Cn1c(-c2ccccc2)cc(-c2ccsc2)c1-c1ccsc1
inactive: NCI/ADR-RES > 100 µM | OVCAR-8 > 100 µM | UACC-62 > 100 µM | NCI-H226 6.81 µM | Hs-578T > 100 µM | MCF7 > 100 µM | U-251 > 100 µM | ACHN > 100 µM | M14 > 100 µM | RXF 393 33.3 µM | LOX IMVI > 100 µM | COLO 205 > 100 µM | SK-OV-3 95.7 µM | SNB-75 > 100 µM | SF-268 > 100 µM | MDA-MB-231 > 100 µM | CAKI-1 > 100 µM | MDA-N > 100 µM | HL-60 53.2 µM

O=c1[nH]nc(Cc2ccccc2)n1/N=C/c1ccncc1
inactive: NCI/ADR-RES > 100 µM | OVCAR-8 > 100 µM | NCI-H226 > 100 µM | Hs-578T 82.2 µM | MCF7 > 100 µM | U-251 > 100 µM | ACHN > 100 µM | M14 > 100 µM | RXF 393 > 100 µM | LOX IMVI > 100 µM | COLO 205 > 100 µM | NCI-H522 > 100 µM | SNB-75 > 100 µM | SF-268 > 100 µM | MDA-MB-231 > 100 µM | CAKI-1 42.2 µM | MDA-N > 100 µM | HL-60 > 100 µM

CCCCC1Cc2cc(OC)ccc2-c2nc3cc(OC)ccc3n21.CCCCC1Cc2cc(OC)ccc2-c2nc3ccc(OC)cc3n21 (stereo not given)
inactive: NCI/ADR-RES 13.2 µM | OVCAR-8 15.6 µM | UACC-62 12.9 µM | NCI-H226 14 µM | Hs-578T 12.7 µM | MCF7 17.2 µM | U-251 15 µM | ACHN 15.2 µM | M14 15 µM | RXF 393 17 µM | LOX IMVI 16.4 µM | COLO 205 4.9 µM | SK-OV-3 13.5 µM | NCI-H522 7.67 µM | SF-268 17.6 µM | MDA-MB-231 13.1 µM | CAKI-1 15.6 µM | MDA-N 14 µM | HL-60 13.8 µM

N#Cc1nc(/C=C/c2cccnc2)oc1N
inactive: NCI/ADR-RES > 100 µM | UACC-62 > 100 µM | NCI-H226 > 100 µM | Hs-578T > 100 µM | MCF7 > 100 µM | U-251 > 100 µM | ACHN > 100 µM | M14 > 100 µM | RXF 393 > 100 µM | LOX IMVI > 100 µM | COLO 205 > 100 µM | SK-OV-3 > 100 µM | NCI-H522 > 100 µM | SNB-75 > 100 µM | SF-268 > 100 µM | MDA-MB-231 > 100 µM | CAKI-1 > 100 µM | MDA-N > 100 µM | HL-60 > 100 µM

CC1C(=O)C23OC[C@@]1(C)C1(O)CC[C@@H](C)[C@]21CC3=O (stereo not given in full)
inactive: NCI/ADR-RES > 100 µM | OVCAR-8 > 100 µM | UACC-62 > 100 µM | NCI-H226 > 100 µM | Hs-578T > 100 µM | MCF7 > 100 µM | U-251 > 100 µM | ACHN > 100 µM | M14 > 100 µM | RXF 393 > 100 µM | LOX IMVI > 100 µM | COLO 205 > 100 µM | SK-OV-3 > 100 µM | NCI-H522 > 100 µM | SNB-75 > 100 µM | SF-268 > 100 µM | MDA-MB-231 > 100 µM | MDA-N > 100 µM | HL-60 > 100 µM

CNc1ccc(C)cc1S(=O)(=O)c1ccccc1[N+](=O)[O-]
inactive: NCI/ADR-RES 42.3 µM | OVCAR-8 78 µM | UACC-62 22.1 µM | NCI-H226 75.5 µM | Hs-578T 55.7 µM | MCF7 30 µM | U-251 57.7 µM | ACHN 30.8 µM | M14 40.6 µM | RXF 393 > 100 µM | LOX IMVI 30.9 µM | COLO 205 65.6 µM | SK-OV-3 91 µM | NCI-H522 31.8 µM | SNB-75 43.3 µM | SF-268 53 µM | MDA-MB-231 > 100 µM | MDA-N 26.2 µM | HL-60 > 10 µM

Cc1nc2ccc(/N=N/N(C)C)cc2[nH]1
inactive: NCI/ADR-RES > 100 µM | OVCAR-8 > 100 µM | UACC-62 > 100 µM | NCI-H226 > 100 µM | Hs-578T > 100 µM | MCF7 > 100 µM | U-251 > 100 µM | ACHN > 100 µM | M14 > 100 µM | RXF 393 > 100 µM | LOX IMVI > 100 µM | COLO 205 > 100 µM | SK-OV-3 > 100 µM | NCI-H522 > 100 µM | SNB-75 > 100 µM | SF-268 > 100 µM | MDA-MB-231 > 100 µM | CAKI-1 > 100 µM | MDA-N > 100 µM

CN(C)CCCn1c(Cc2ccc(Cl)cc2)nc2cc(C(F)(F)F)ccc21
inactive: NCI/ADR-RES 15.7 µM | OVCAR-8 17.3 µM | UACC-62 17.3 µM | NCI-H226 18.7 µM | Hs-578T 16.6 µM | MCF7 14.5 µM | U-251 15.3 µM | ACHN 13.2 µM | M14 12.7 µM | RXF 393 9.06 µM | LOX IMVI 14.5 µM | COLO 205 10.7 µM | SK-OV-3 14.4 µM | NCI-H522 14.6 µM | SF-268 14.1 µM | MDA-MB-231 13.6 µM | CAKI-1 13.3 µM | MDA-N 12 µM | HL-60 29.6 µM

CCCCc1c2c(nc3c1CCC/C3=C\c1ccccc1)C(=O)C(CN(C)C)CC2 (stereo not given)
inactive: NCI/ADR-RES 29.3 µM | OVCAR-8 20.8 µM | UACC-62 20.3 µM | NCI-H226 22.6 µM | Hs-578T 17.9 µM | MCF7 3.37 µM | U-251 16.6 µM | ACHN 15.9 µM | M14 17.4 µM | RXF 393 16.3 µM | LOX IMVI 16.2 µM | COLO 205 19.1 µM | SK-OV-3 18.5 µM | NCI-H522 13.8 µM | SNB-75 18.1 µM | SF-268 16.2 µM | MDA-MB-231 11.1 µM | MDA-N 7.28 µM | HL-60 2.67 µM

COc1ccc(/C=C/c2sc3ccccc3[n+]2CCCCI)cc1OC
inactive: NCI/ADR-RES > 10 µM | OVCAR-8 4.61 µM | UACC-62 6.32 µM | NCI-H226 > 10 µM | Hs-578T > 10 µM | MCF7 > 10 µM | U-251 6.67 µM | ACHN > 10 µM | M14 > 10 µM | RXF 393 > 10 µM | LOX IMVI > 10 µM | SK-OV-3 > 10 µM | NCI-H522 8.87 µM | SNB-75 5.64 µM | SF-268 > 10 µM | MDA-MB-231 > 10 µM | CAKI-1 > 10 µM | MDA-N 5.97 µM | HL-60 4.46 µM
